Experiments:
C. parvum PI(4)K = C. parvum PI(4)K (Cryptosporidium parvum, UniProt Q5CVD3); assay: CpPI(4)K enzymatic assay (Transcreener ADP2 FP); assay type: biochemical
Description: Baculovirus expression and purification of C. parvum phosphatidylinositol 4-kinase: The full-length coding sequence of C. parvum PI(4)K (cgd8_4500, 1114 amino acids) was codon-optimized for baculovirus expression, synthesized and cloned into pFastBac-HTb (Invitrogen 10584-027) in frame with the amino-terminal polyhistidine tag using the BamHI and HindIII restriction sites. Recombinant pFastBacHTb-CpPI(4)K bacmid clones were generated by site-specific transposition in E. coli DH10Bac (Invitrogen 10361-012). The bacmid sequence was confirmed by direct DNA sequencing to confirm a lack of mutations across the whole gene. The subsequent steps for bacmid isolation, transfection and selection of the recombinant viruses were performed according to the manufacturer's protocol (Bac-to-Bac system #10359, Invitrogen).
SF9 cells, cultured in […] serum-free medium, were transfected with recombinant baculovirus at 1/200 (v/v) and incubated at 27° C. for 72 h. The pellets were collected after centrifugation and re-suspended in cell lysis buffer (20 mM Tris-HCl, pH 7.5, 300 mM NaCl, 1 mM DTT, 20 mM imidazole, 0.01% Triton X-100 and 1× complete protease inhibitor cocktail without EDTA (Roche Diagnostics 04693116001)). The cell suspension was lysed by sonication and the clarified supernatant was loaded onto a 1 ml HisTrap affinity column (GE Healthcare) pre-equilibrated with buffer A (20 mM Tris-HCl, pH 7.5, 300 mM NaCl, 1 mM DTT, 20 mM Imidazole, and 1× complete protease inhibitor cocktail without EDTA). The column was washed with buffer B (buffer A containing 45 mM imidazole) and the bound protein of interest was eluted with buffer C (buffer A with 90 mM imidazole). The fractions containing CpPI(4)K were pooled, concentrated using Amicon Ultra-15 and purified by a gel-filtration column (Hi-Load 26/60 Superdex 200, GE Healthcare) equilibrated with 20 mM Tris, pH 7.5, 300 mM NaCl, 1 mM DTT and 1× protease inhibitor cocktail without EDTA. The concentrations of the purified protein (Mw 132.39 kda) was determined by using the protein molar extinction coefficient (ε280 nm=133,810 M^−1 cm^−1). Aliquots were flash frozen in liquid nitrogen and immediately stored at −80° C.
PI(4)K enzymatic Assay The CpPI(4)K enzymatic assay was performed as described earlier with a some modifications (McNamara et al., 2013). Briefly, L-α-phosphatidylinositol (Avanti Polar Lipid 840046), dissolved in 3% n-octylglucoside (Roche Diagnostics 10634425001), was used as the lipid substrate for the PI(4)K activity assay. CpPI(4)K was assayed using Transcreener ADP2 FP detection kit (BellBrook 3010) in a black, solid 384-well plate (Corning 3575). The final assay volume was 10 μl and contained 3 nM of the respective CpPI(4)K construct in 10 mM Tris, pH 7.5, 1 mM DTT, 3 μM ATP, 5 mM Mn2+, 0.05% Triton X-100 and 10 μM phosphatidylinositol/octylglucoside. The enzyme reaction was performed for 50 minutes at room temperature and was stopped by adding 10 μl of detection mix containing 1× stop buffer (50 mM HEPES, pH7.5, 400 mM NaCl, 20 mM EDTA, and 0.02% Brij-35), 2 nM AMP Alexa Fluor 633 tracer, and 20 μg ml^−1 ADP antibody. Fluorescence polarization measurements were performed on the Infinite M1000 plate reader (Tecan) with λex=635 nm and λem=680 nm (20-nm bandwidth). IC50 values were calculated using Graphpad Prism software.

Cryptosporidium parvum = assay: Cytopathic effect (CPE) based assay, C. parvum-infected HCT-8 cells; assay type: cell-based; details: HCT-8, 48 h, read-out: (b) C.p.* CPE EC50 (μM)
Experimental: (§1) Human ileocecal colorectal adenocarcinoma cells (HCT-8 [HRT-18] ATCC, CCL-34) were maintained in T-175 flasks (Corning, 431080) in complete growth medium (RPMI-1640 medium (Gibco, 11875) supplemented with 10% heat-inactivated horse serum (Gibco, 26050), 1× MEM non-essential amino acids (Gibco, 11140), 10 mM HEPES (Gibco, 15630), 100 units/mL penicillin, and 100 units/mL streptomycin) at 37° C. and 5% CO2 in a humidified incubator. Cultures were passaged twice weekly using 10 mL of 1× Phosphate-Buffered Saline (PBS) without Ca^2+ and Mg^2+ (Gibco, 20012) for washing and 3-5 mL per T-175 flask of TrypLE Express Enzyme (Gibco, 12604) for dissociation of adherent cells.
Cryptosporidium parvum oocysts purchased from the Sterling Laboratory, University of Arizona (Iowa isolate) were purified from infected calf feces using discontinuous sucrose and cesium chloride centrifugation gradients and stored in PBS solution containing 0.01% Tween 20, 100 units/mL penicillin and 100 units/mL gentamicin.
(§2) Excystaion and infection: Excystation and infection protocols were developed following established methods with some modifications (Gut & Nelson, 1999, Upton et al., 1995, Bessoff et al., 2013). Briefly, oocysts were primed in 1 mL of 10 mM hydrochloric acid in 1× Hank's Balanced Salt Solution (HBSS) (Gibco, 14025) for 10 minutes with agitation at 1000 rpm, 37° C. on an Eppendorf thermomixer, then washed twice with 1 mL of room temperature non-acidic 1× HBSS by centrifugation at 13,000 rpm for 3 minutes at 25° C. Primed oocysts were further excysted at a concentration of 1×10^6 oocysts/μL in parasite infection medium consisting of a pre-warmed and pre-gassed 1:1 formulation of Leibovitz's L-15 medium (Gibco, 11415) and UltraCULTURE medium (Lonza, 12-725F) supplemented with 2 mM sodium taurocholate (Sigma, 86339-1), 10% heat-inactivated horse serum, and 200 μM L-ascorbic acid (Sigma, 95210) at 25° C. for 10 minutes. HCT-8 monolayer cells were infected with excysted cryptosporidium at a specified multiplicity of infection (MOI). All dilutions for subsequent assays were performed in parasite infection medium without sodium taurocholate. Pre-excysted oocysts were enumerated microscopically using a C-Chip disposable hemocytometer (NanoEnTek, DHC-N01).
Compound and assay plate preparation: Compound powders were dissolved in neat DMSO (Fisher, D4121) to 10 mM and stored at 4° C. prior to dilution into source plates. Dilutions were carried out using a Microlab STAR liquid handler (Hamilton) to obtain compound source plates containing the ten-point or eight-point three fold dilutions starting from 10 mM in duplicates. Source plates were stored at 4° C. prior to spotting into assay plates. Before administration, all compound source plates were equilibrated to room temperature. A specified volume of compounds from source plate were spotted to assay plate using an Echo Acoustic liquid handler (LABCYTE, 550) so that the final DMSO concentration was less than 0.5%. Each assay plate a specified number of DMSO-treated negative control wells and a well-studied potent active compound at 100 nM as positive control. As a quality control, all positive and negative-control wells were used to calculate a Z′-value and signal to noise ratio (S:N) for each plate.
Cryptosporidium spp are obligate-intracellular parasites that infect intestinal epithelial cells and the host cell is killed upon parasite egress. […] The loss of epithelial cells is due to both rapid parasite invasion/multiplication/egress and also pro-inflammatory immune response (Adams et al., 1994, Griffiths et al., 1994). We have observed a consistent cytopathic effect (CPE) in HCT-8 cells with C. spp infection the loss of viability of the host cells using CellTiter-Glo reagent.
Confluent HCT-8 cells in T-175 flasks were directly infected with excysted oocysts at an MOI (host to parasite) of 1:2 for C. parvum and 1:4 for C. hominis. […]

Cryptosporidium hominis = assay: Cytopathic effect (CPE) based assay, C. hominis-infected HCT-8 cells; assay type: cell-based; details: HCT-8 host cells, 48 hours treatment, CellTiter-Glo, read-out: (c) C.h.* CPE EC50
Experimental: as §1
Cryptosporidium hominis oocysts were purchased from the Tufts University Cummings School of Veterinary Medicine (courtesy of Dr. Saul Tzipori). C. hominis oocysts were purified from infected gnotobiotic piglet feces and stored in PBS solution containing 0.01% Tween-20, 100 units/mL penicillin and 100 units/mL gentamicin. C. parvum and C. hominis oocysts less than three months old from the date of shedding were used in infection experiments.
as §2
Compound and assay plate preparation: Compound powders were dissolved in neat DMSO (Fisher, D4121) to 10 mM and stored at 4° C. prior to dilution into source plates. Dilutions were carried out using a Microlab STAR liquid handler (Hamilton) to obtain compound source plates containing the ten-point or eight-point three fold dilutions starting from 10 mM in duplicates. […]

H.s. PI(4)K = H.s. PI(4)K (Homo sapiens, UniProt Q9UBF8); assay: H.s. PI(4)K IC50; assay type: biochemical; details: read-out: (d) H.s.* PI(4)K IC50
Chain of H.s. PI(4)K (Q9UBF8 2-816 limits assumed): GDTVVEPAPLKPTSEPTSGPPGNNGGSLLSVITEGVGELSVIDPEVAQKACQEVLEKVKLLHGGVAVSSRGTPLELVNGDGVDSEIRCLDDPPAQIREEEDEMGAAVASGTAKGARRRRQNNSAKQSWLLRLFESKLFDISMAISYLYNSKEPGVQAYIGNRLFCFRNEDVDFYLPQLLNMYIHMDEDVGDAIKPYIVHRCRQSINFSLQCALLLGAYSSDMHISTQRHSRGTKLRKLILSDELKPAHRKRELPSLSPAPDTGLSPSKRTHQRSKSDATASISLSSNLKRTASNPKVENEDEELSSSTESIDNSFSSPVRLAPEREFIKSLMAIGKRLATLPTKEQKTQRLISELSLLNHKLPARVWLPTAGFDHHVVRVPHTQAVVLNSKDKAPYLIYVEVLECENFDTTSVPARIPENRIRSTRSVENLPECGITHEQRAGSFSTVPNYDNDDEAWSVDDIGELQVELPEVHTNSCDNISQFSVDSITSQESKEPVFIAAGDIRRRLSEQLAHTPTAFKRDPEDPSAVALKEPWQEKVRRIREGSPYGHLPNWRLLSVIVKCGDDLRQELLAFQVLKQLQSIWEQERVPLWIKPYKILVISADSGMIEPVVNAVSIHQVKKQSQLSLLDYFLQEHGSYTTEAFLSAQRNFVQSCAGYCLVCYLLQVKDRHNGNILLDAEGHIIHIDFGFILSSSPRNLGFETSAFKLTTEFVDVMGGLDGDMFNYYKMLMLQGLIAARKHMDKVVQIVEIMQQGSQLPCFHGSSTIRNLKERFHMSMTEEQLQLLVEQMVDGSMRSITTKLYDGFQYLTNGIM

Chain of C. parvum PI(4)K (Q5CVD3 entry or part of it): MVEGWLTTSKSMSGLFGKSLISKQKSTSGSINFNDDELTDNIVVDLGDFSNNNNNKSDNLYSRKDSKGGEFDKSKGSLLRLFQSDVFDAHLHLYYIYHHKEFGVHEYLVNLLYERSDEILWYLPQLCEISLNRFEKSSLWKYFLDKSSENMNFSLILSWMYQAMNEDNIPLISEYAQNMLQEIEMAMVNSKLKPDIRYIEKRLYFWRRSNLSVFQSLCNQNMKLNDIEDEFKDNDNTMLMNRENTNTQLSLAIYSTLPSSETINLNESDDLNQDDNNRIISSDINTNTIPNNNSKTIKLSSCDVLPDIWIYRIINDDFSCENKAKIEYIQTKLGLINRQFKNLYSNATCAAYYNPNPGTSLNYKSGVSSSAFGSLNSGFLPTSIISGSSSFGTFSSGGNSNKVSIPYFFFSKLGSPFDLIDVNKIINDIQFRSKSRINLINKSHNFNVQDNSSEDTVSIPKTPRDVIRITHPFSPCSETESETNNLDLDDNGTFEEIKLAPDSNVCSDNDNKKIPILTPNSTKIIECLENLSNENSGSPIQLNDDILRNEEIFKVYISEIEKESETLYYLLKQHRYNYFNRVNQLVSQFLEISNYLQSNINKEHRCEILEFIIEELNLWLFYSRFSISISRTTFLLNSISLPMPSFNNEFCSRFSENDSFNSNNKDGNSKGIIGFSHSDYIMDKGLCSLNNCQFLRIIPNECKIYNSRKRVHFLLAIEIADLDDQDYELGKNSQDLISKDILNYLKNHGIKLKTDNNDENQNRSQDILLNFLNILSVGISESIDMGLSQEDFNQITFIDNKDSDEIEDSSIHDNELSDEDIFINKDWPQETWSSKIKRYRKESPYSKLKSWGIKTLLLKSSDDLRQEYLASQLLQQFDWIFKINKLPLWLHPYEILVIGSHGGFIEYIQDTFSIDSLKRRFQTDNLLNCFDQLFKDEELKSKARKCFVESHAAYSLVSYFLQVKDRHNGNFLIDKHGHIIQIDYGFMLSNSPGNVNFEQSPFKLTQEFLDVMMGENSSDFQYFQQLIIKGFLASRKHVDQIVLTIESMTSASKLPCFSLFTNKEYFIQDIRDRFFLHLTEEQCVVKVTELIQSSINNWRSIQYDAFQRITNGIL

`COC(=O)c1cc(Cl)ccc1N(C)C(=O)c1ccn2ncc(-c3ccc(C(N)=O)cc3)c2c1` [Example 4.1, Methyl 2-(3-(4-carbamoylphenyl)-N-methylpyrazolo[1,5-a]pyridine-5-carboxamido)-5-chlorobenzoate] gave an IC50 (C. parvum PI(4)K) of under 100 nM, an EC50 (Cryptosporidium parvum) of under 0.1 µM and an EC50 (Cryptosporidium hominis) of under 100 nM. It also gave an IC50 (H.s. PI(4)K) of 100 to 1000 nM.
With `COC(=O)c1cc(N(C)C(=O)c2ccn3ncc(-c4ccc(C(N)=O)cc4)c3c2)ccc1Cl` [Example 1.01, Methyl 5-(3-(4-carbamoylphenyl)-N-methylpyrazolo[1,5-a]pyridine-5-carboxamido)-2-chlorobenzoate] the IC50 (C. parvum PI(4)K) was under 100 nM, the EC50 (Cryptosporidium parvum) was under 0.1 µM and the EC50 (Cryptosporidium hominis) was under 100 nM. For the same compound, the IC50 (H.s. PI(4)K) was 100 to 1000 nM.
Compound `CNC(=O)c1ccc(-c2cnn3cnc(C(=O)N(C)c4ccc(Cl)c(C(=O)OC)c4)cc23)cc1` [Example 3.1, Methyl 2-chloro-5-(N-methyl-3-(4-(methylcarbamoyl)phenyl)pyrazolo[1,5-c]pyrimidine-5-carboxamido)benzoate] has an IC50 (C. parvum PI(4)K) of under 100 nM, an EC50 (Cryptosporidium parvum) of 0.1 to 1 µM and an EC50 (Cryptosporidium hominis) of 100 to 1000 nM. The IC50 (H.s. PI(4)K) was over 1000 nM.

— patent US12018024B2, “Compounds and compositions for the treatment of cryptosporidiosis” (Novartis AG, priority 2020, dated 2024)
